Results as given in the kinase profiling compilation of Christmann-Franck et al. (2016).

Columns and labels:
[1] = target: NLK (human) (UniProt Q9UBE8); assay: KINOMEscan competition binding; settings: compound 10.0 µM
[2] = target: MAK (human) (UniProt P20794); assay: KINOMEscan competition binding; settings: compound 10.0 µM
[3] = target: CDK3 (human) (UniProt Q00526); assay: KINOMEscan competition binding; settings: compound 10.0 µM
[4] = target: MINK1 (human) (UniProt Q8N4C8); assay: KINOMEscan competition binding; settings: compound 10.0 µM
[5] = target: TGFBR2 (human) (UniProt P37173); assay: KINOMEscan competition binding; settings: compound 10.0 µM
[6] = target: FLT1 (human) (UniProt P17948); assay: KINOMEscan competition binding; settings: compound 10.0 µM
[7] = target: PAK2 (human) (UniProt Q13177); assay: KINOMEscan competition binding; settings: compound 10.0 µM
[8] = target: FLT3 (human) (UniProt P36888); assay: KINOMEscan competition binding; settings: compound 10.0 µM
[9] = target: PI4KA (human) (UniProt P42356)
[10] = target: PRKACA (human) (UniProt P17612)
[11] = target: MAPK12 (human) (UniProt P53778)
[12] = target: SYK (human) (UniProt P43405)
[13] = target: PRKCZ (human) (UniProt Q05513)
[14] = target: TBK1 (human) (UniProt Q9UHD2)
[15] = target: RPS6KA1 KD1 KD2 (human) (UniProt Q15418)
[16] = test system: ROCK2 (rat); settings: accession and sequence are those of the human protein
[17] = target: MKNK2 (human) (UniProt Q9HBH9)
Chain of MKNK2 (human) (Q9HBH9 whole entry, looked up): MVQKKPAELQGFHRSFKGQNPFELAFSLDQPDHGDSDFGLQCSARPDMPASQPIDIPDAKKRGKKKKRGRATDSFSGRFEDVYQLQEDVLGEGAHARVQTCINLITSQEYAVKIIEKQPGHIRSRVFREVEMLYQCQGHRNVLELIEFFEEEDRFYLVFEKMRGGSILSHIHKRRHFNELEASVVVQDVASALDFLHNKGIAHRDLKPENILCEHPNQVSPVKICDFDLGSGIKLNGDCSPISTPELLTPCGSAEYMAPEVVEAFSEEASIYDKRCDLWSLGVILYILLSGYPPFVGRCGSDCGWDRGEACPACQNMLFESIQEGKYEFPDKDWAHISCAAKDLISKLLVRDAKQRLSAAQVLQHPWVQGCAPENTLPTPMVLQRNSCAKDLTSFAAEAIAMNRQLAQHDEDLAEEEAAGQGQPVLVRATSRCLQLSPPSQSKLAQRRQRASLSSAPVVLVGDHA

[18] = target: INSRR (human) (UniProt P14616); settings: compound 10.0 µM
[19] = target: MST4 (human) (UniProt Q9P289)
Chain of MST4 (human) (Q9P289 whole entry, looked up): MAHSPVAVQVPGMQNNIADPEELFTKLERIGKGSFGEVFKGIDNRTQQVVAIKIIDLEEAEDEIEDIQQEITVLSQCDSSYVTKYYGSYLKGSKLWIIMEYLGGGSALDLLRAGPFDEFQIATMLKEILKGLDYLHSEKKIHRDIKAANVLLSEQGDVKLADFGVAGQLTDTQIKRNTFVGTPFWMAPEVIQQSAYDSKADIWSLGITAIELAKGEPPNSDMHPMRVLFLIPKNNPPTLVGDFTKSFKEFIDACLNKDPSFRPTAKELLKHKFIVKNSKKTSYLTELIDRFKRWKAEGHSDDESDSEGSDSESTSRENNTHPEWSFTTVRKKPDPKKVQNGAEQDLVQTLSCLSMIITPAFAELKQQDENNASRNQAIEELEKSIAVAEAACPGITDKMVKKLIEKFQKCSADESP

[20] = target: STK3 (human) (UniProt Q13188)
[21] = target: EPHB3 (human) (UniProt P54753)
Chain of EPHB3 (human) (P54753 whole entry, looked up): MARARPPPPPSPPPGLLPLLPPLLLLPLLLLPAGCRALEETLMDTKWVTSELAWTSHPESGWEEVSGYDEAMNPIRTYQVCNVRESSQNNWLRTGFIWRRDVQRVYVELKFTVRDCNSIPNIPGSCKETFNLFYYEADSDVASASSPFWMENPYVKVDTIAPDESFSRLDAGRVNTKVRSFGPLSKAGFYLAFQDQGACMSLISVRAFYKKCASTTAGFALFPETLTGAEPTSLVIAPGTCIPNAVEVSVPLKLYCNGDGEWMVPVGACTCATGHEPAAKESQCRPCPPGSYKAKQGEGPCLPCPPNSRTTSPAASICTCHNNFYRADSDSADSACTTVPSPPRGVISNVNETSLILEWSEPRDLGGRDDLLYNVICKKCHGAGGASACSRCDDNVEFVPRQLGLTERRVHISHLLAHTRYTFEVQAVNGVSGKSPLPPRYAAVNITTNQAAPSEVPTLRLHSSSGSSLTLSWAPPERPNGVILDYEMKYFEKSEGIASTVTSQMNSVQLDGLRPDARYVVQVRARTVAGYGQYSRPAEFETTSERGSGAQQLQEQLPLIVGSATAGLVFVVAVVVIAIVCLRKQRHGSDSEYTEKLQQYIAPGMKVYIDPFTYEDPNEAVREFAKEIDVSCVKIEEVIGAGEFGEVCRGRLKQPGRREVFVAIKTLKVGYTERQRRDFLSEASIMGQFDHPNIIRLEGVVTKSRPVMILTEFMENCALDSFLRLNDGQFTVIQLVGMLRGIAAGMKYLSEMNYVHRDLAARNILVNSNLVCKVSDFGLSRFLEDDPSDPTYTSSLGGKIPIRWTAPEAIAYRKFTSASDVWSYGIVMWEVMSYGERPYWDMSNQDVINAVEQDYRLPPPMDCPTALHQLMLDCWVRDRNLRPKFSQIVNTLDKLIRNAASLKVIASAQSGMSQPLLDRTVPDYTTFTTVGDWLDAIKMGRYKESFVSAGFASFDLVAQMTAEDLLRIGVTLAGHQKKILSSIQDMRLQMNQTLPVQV

[22] = target: SRPK1 (human) (UniProt Q96SB4)
[23] = target: MELK (human) (UniProt Q14680)
Chain of MELK (human) (Q14680 whole entry, looked up): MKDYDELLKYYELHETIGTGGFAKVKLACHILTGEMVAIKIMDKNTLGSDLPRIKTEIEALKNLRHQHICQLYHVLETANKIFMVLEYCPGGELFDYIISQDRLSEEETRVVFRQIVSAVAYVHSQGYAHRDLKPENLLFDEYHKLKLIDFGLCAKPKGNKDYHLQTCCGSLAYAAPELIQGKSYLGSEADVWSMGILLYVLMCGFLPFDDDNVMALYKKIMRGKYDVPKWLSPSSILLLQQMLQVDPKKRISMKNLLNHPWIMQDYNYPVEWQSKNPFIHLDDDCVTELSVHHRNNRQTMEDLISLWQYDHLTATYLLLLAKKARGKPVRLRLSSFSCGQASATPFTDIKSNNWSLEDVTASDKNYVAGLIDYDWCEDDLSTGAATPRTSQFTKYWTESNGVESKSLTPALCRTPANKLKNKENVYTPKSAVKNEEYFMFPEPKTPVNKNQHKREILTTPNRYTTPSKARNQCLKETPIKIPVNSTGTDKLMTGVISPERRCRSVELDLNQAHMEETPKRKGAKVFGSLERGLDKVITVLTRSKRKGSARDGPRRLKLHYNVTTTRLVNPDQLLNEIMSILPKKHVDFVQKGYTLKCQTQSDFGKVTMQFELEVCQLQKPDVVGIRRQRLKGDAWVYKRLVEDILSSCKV

[24] = target: IGF1R (human) (UniProt P08069)
Chain of IGF1R (human) (P08069 whole entry, looked up): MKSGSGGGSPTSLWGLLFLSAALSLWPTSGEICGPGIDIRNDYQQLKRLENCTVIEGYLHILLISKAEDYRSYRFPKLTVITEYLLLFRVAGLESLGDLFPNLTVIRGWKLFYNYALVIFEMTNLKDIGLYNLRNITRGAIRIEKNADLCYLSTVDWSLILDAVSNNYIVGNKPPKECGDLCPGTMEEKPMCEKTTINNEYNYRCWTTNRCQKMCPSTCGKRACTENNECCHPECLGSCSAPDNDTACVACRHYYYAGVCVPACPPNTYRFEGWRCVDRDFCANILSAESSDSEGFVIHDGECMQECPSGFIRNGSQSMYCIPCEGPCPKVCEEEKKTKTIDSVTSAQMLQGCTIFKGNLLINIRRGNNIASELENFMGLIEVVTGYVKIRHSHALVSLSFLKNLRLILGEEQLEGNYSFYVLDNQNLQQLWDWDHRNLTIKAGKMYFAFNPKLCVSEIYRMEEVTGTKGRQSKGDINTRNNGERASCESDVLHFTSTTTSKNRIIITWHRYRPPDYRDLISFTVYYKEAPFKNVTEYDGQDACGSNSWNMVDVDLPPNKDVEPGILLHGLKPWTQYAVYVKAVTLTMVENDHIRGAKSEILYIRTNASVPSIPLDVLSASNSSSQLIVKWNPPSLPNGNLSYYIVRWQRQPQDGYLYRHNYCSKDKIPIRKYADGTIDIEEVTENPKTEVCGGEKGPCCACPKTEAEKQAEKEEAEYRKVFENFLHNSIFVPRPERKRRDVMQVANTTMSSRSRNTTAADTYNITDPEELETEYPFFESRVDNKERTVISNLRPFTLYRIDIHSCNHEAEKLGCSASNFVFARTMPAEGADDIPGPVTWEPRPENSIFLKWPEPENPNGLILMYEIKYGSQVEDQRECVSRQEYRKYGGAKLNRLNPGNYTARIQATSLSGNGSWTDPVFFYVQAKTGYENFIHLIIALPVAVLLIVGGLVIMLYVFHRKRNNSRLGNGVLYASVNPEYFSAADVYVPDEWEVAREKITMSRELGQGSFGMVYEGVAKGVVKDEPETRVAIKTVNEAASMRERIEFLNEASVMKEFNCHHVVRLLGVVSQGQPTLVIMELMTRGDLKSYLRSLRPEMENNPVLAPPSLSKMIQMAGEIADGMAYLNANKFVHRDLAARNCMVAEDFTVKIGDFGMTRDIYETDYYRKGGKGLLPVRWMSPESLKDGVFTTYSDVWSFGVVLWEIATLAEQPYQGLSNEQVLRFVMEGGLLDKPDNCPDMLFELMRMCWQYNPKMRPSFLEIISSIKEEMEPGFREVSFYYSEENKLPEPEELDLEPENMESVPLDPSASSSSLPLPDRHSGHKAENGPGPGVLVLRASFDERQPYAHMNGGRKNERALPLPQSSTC

[25] = test system: PRKAA1 or PRKAA2 (rat); settings: accession and sequence are those of the human protein
[26] = target: PAK6 (human) (UniProt Q9NQU5)
[27] = target: FGFR1 (human) (UniProt P11362)
[28] = target: CSK (human) (UniProt P41240)
[29] = target: CSNK1D (human) (UniProt P48730)
[30] = target: MAPK13 (human) (UniProt O15264)
Chain of MAPK13 (human) (O15264 whole entry, looked up): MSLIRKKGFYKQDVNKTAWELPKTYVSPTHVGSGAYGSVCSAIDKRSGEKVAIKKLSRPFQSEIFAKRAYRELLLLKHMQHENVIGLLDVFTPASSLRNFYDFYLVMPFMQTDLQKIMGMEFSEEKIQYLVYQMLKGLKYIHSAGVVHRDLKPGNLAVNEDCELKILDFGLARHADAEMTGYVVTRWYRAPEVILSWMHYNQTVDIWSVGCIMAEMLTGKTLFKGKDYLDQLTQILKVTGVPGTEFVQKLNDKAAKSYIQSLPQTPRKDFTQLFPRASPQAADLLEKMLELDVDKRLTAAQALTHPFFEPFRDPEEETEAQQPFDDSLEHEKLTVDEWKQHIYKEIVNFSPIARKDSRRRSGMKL

[31] = target: SRC (human) (UniProt P12931)
[32] = target: DYRK3 (human) (UniProt O43781)
Chain of DYRK3 (human) (O43781 whole entry, looked up): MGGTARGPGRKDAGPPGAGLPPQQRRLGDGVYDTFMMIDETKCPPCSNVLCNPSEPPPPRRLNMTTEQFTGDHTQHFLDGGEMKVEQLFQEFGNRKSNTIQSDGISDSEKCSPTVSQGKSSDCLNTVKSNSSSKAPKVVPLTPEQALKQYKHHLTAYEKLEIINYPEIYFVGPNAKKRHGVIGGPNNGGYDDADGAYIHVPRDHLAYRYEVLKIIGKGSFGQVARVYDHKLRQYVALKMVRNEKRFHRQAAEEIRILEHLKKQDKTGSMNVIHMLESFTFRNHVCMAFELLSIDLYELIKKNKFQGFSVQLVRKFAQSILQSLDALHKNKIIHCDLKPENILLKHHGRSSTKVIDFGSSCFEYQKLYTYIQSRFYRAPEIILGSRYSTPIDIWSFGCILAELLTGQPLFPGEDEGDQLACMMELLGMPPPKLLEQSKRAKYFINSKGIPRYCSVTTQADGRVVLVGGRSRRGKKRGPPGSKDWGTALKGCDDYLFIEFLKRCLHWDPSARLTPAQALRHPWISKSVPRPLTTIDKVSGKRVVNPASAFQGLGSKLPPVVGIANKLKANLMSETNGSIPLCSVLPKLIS

## CCC(=O)N1CCN(c2ccc(-n3c(=O)ccc4cnc5ccc(-c6cnc7ccccc7c6)cc5c43)cc2C(F)(F)F)CC1
[1]
  kinase still bound, per cent of control: 25%
[2]
  kinase still bound, per cent of control: 68%
[3]
  per cent of control: 100%
[4]
  kinase still bound, per cent of control: 19%
[5]
  kinase still bound, per cent of control: 77%
[6]
  kinase still bound, per cent of control: 79%
[7]
  kinase still bound, per cent of control: 100%
[8]
  kinase still bound, per cent of control: 16%
[9]
  IC50: > 10 µM
[10]; compound 1.0 µM
  per cent of control: 106%
[10]; compound 10.0 µM
  per cent of control: 96%
[11]; compound 1.0 µM
  per cent of control: 103%
[11]; compound 10.0 µM
  per cent of control: 129%
[12]; compound 1.0 µM
  per cent of control: 131%
[12]; compound 10.0 µM
  per cent of control: 68%
[13]; compound 1.0 µM
  per cent of control: 121%
[13]; compound 10.0 µM
  per cent of control: 106%
[14]; compound 1.0 µM
  per cent of control: 96%
[14]; compound 10.0 µM
  per cent of control: 87%
[15]; compound 1.0 µM
  per cent of control: 93%
[15]; compound 10.0 µM
  per cent of control: 71%
[16]; compound 1.0 µM
  per cent of control: 96%
[16]; compound 10.0 µM
  per cent of control: 101%
[17]; compound 1.0 µM
  per cent of control: 112%
[17]; compound 10.0 µM
  per cent of control: 96%
[18]
  per cent of control: 73%
[19]; compound 1.0 µM
  per cent of control: 96%
[19]; compound 10.0 µM
  per cent of control: 89%
[20]; compound 1.0 µM
  per cent of control: 97%
[20]; compound 10.0 µM
  per cent of control: 79%
[21]; compound 1.0 µM
  per cent of control: 115%
[21]; compound 10.0 µM
  per cent of control: 94%
[22]; compound 1.0 µM
  per cent of control: 107%
[22]; compound 10.0 µM
  per cent of control: 110%
[23]; compound 1.0 µM
  per cent of control: 63%
[23]; compound 10.0 µM
  per cent of control: 17%
[24]; compound 1.0 µM
  per cent of control: 100%
[24]; compound 10.0 µM
  per cent of control: 93%
[25]; compound 1.0 µM
  per cent of control: 78%
[25]; compound 10.0 µM
  per cent of control: 93%
[26]; compound 1.0 µM
  per cent of control: 110%
[26]; compound 10.0 µM
  per cent of control: 80%
[27]; compound 1.0 µM
  per cent of control: 110%
[27]; compound 10.0 µM
  per cent of control: 79%
[28]; compound 1.0 µM
  per cent of control: 101%
[28]; compound 10.0 µM
  per cent of control: 83%
[29]; compound 1.0 µM
  per cent of control: 93%
[29]; compound 10.0 µM
  per cent of control: 104%
[30]; compound 1.0 µM
  per cent of control: 106%
[30]; compound 10.0 µM
  per cent of control: 97%
[31]; compound 1.0 µM
  per cent of control: 60%
[31]; compound 10.0 µM
  per cent of control: 52%
[32]; compound 1.0 µM
  per cent of control: 88%
[32]; compound 10.0 µM
  per cent of control: 52%
